Source: ChEMBL document CHEMBL4834431, “Design of Dimeric Bile Acid Derivatives as Potent and Selective Human NTCP Inhibitors” (J Med Chem, 2021)
Calls of active or inactive are those of the source. No cut-off for these calls is given here.

Tests used:
Hepatitis delta virus = assay: Antiviral activity against HDV infected in human HepG2-NTCP cells assessed as reduction in intranuclear accumulation of HDV delta antigen at 10 uM incubated for 24 hrs followed by replacement with fresh medium and measured at day 5 post infection by DAPI staining based confocal microscopic analysis (reference value: 12.1 %); type: functional; set-up: scale not given: the % may be the effect or the level left
[1] = target: T1, Hepatic sodium/bile acid cotransporter (Homo sapiens, UniProt Q14973); assay: Inhibition of human NTCP-mediated [3H]-TCA uptake expressed in human HepG2 cells at 3.3 uM incubated for 10 mins by liquid scintillation counter analysis; type: cell-based; details: hepg2, 10 min
T1 sequence (Q14973 whole entry): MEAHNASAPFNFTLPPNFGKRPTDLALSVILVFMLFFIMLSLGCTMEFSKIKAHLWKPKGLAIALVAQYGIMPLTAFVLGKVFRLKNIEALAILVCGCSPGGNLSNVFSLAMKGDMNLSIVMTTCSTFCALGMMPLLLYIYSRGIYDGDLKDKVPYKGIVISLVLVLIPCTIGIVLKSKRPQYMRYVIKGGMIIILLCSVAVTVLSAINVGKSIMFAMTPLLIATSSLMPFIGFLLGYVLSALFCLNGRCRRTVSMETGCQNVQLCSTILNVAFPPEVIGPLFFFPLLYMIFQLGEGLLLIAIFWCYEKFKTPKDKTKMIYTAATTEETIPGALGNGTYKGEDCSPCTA

Hepatitis B virus [2] = assay: Antiviral activity against HBV infected in human HepG2-NTCP cells assessed as reduction in HBeAg secretion at 1 to 10 uM incubated for 24 hrs followed by replacement with fresh medium and measured at day 5 post infection by ELISA; type: functional, organism-based; details: dose 1-10 µM
Hepatitis B virus [3] = assay: Antiviral activity against HBV infected in human HepG2-NTCP cells assessed as reduction in HBeAg secretion measured at day 7 post infection by ELISA; type: functional, organism-based; details: HepG2, 168 h
[4] = Half life in ip dosed C57B/L mouse by LC/MS analysis; type: ADME, organism-based; details: in vivo
[5] = target: T1, Hepatic sodium/bile acid cotransporter; assay: Inhibition of human NTCP-mediated [3H]-TCA uptake expressed in human HepG2 cells in presence of 50 % FBS; type: cell-based
[6] = Plasma protein binding in mouse; type: ADME, cell-free; details: read-out: PPB
[7] = Stability in mouse liver microsomes assessed as half life at 1 uM preincubated for 5 mins followed by NADPH addition and measured upto 60 mins by LC-MS analysis; type: ADME, Microsome; details: time 65 min
[8] = Stability in mouse liver microsomes assessed as intrinsic clearance at 1 uM preincubated for 5 mins followed by NADPH addition and measured upto 60 mins by LC-MS analysis; type: ADME, Microsome; details: time 65 min, read-out: CLH
[9] = target: T1, Hepatic sodium/bile acid cotransporter; assay: Inhibition of human NTCP-mediated [3H]-TCA uptake expressed in human HepG2 cells in presence of 20 % FBS; type: cell-based
[10] = target: T2, Hepatic sodium/bile acid cotransporter (Mus musculus, UniProt O08705); assay: Inhibition of mouse NTCP-mediated [3H]-TCA uptake expressed in human HepG2 cells in presence of mouse serum; type: cell-based
T2 sequence (O08705 whole entry): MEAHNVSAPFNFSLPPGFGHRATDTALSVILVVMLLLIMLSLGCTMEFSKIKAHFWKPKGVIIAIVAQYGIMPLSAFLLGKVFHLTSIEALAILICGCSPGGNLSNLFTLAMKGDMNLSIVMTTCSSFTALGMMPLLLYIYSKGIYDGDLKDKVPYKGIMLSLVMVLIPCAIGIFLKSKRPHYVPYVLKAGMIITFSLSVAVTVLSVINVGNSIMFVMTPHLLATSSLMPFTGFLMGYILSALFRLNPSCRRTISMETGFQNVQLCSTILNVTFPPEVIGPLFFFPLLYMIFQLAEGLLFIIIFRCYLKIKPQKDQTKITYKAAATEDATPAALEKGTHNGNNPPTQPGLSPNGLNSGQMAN

[11] = Bioavailability in ip dosed C57B/L mouse by LC/MS analysis; type: ADME, organism-based; details: in vivo
Hepatitis B virus [12] = assay: Antiviral activity against HBV infected in human HepG2-NTCP cells assessed as reduction in HBeAg secretion incubated for 24 hrs followed replacement with fresh medium and measured at day 5 post infection by ELISA; type: functional, organism-based
[13] = target: T1, Hepatic sodium/bile acid cotransporter; assay: Inhibition of human NTCP-mediated [3H]-TCA uptake expressed in human HepG2 cells in presence of human serum; type: cell-based
[14] = Toxicity in C57B/L mouse assessed as effect on ALT level at 50 mg/kg, ip administered twice daily for 3 days; type: organism-based; details: in vivo, 72 h, time 3 day
[15] = Stability in human liver microsomes assessed as half life at 1 uM preincubated for 5 mins followed by NADPH addition and measured upto 60 mins by LC-MS analysis; type: ADME, Microsome; details: time 65 min
[16] = Oral bioavailability in C57B/L mouse by LC/MS analysis; type: ADME, organism-based; details: in vivo
[17] = target: T2, Hepatic sodium/bile acid cotransporter; assay: Inhibition of mouse NTCP-mediated [3H]-TCA uptake expressed in human HepG2 cells in presence of human serum; type: cell-based
HepG2 = assay: Inhibition of human NTCP-mediated [3H]-TCA uptake expressed in human HepG2 cells in presence of bovine serum; type: cell-based; details: Bos taurus
[18] = Toxicity in C57B/L mouse assessed as effect on body weight at 50 mg/kg, ip administered twice daily for 3 days; type: organism-based; details: in vivo, 72 h, time 3 day
[19] = Plasma protein binding in human; type: ADME, cell-free; details: read-out: PPB
[20] = Stability in human liver microsomes assessed as intrinsic clearance at 1 uM preincubated for 5 mins followed by NADPH addition and measured upto 60 mins by LC-MS analysis; type: ADME, Microsome; details: time 65 min, read-out: CLH
[21] = target: T1, Hepatic sodium/bile acid cotransporter; assay: Inhibition of human NTCP-mediated [3H]-TCA uptake expressed in human HepG2 cells pretreated for 2 hrs followed by [3H]-TCA addition in absence of FBS; type: cell-based
Mus musculus [22] = assay: Effect on human NTCP knock-in C57B/L mouse assessed as increase in total bile acid level at 50 mg/kg, ip administered twice daily for 3 days; type: functional, organism-based; details: time 3.0 day
Mus musculus [23] = assay: Effect on wild-type C57B/L mouse assessed as increase in total bile acid level at 50 mg/kg, ip administered twice daily for 3 days; type: functional, organism-based; details: time 3.0 day

SMILES: C[C@H](CCC(=O)NCCS(=O)(=O)O)[C@H]1CC[C@H]2[C@@H]3[C@@H](O)C[C@@H]4C[C@H](O)CC[C@]4(C)[C@H]3CC[C@]12C [TAURURSODIOL]
- Activity (Hepatitis delta virus): 7.1%
- inhibition (INH) [1]: Not Active
- Activity (Hepatitis B virus [2]): inactive
- IC50 (Hepatitis B virus [3]): 3000 nM

SMILES: C[C@@H]1CCC(=O)NC(C(=O)NCCS(=O)(=O)O)CNC(=O)CC[C@@H](C)[C@H]2CC[C@H]3[C@@H]4[C@@H](O)C[C@@H]5C[C@@H](CC[C@]5(C)[C@H]4CC[C@]23C)n2cc(nn2)CO[C@@H]2CC[C@@]3(C)[C@@H](C2)C[C@H](O)[C@@H]2[C@@H]3CC[C@]3(C)[C@@H]1CC[C@@H]23 (stereo not given in full)
- half-life [4]: 1.6 h
- IC50 [5]: 81.5 nM
- fraction unbound [6]: 0.01
- half-life at 1 µM [7]: 0.929 h
- microsomal CLint at 1 µM [8]: 12 µL/min/mg
- IC50 [9]: 54 nM
- inhibition (INH) [10]: Not Active
- bioavailability [11]: 32%
- IC50 (Hepatitis B virus [12]): 178 nM
- inhibition (INH) [13]: Active
- Activity [14]: Non-Toxic
- half-life at 1 µM [15]: 1.89 h
- bioavailability [16]: 1.3%
- inhibition (INH) [17]: Not Active
- inhibition (HepG2): Active
- Activity [18]: Non-Toxic
- fraction unbound [19]: 0.01
- microsomal CLint at 1 µM [20]: 6.1 µL/min/mg
- IC50 [21]: 23.5 nM
- Activity (Mus musculus [22]): Active
- Activity (Mus musculus [23]): inactive
